This is an account of results in patent US20260297042A1, “BIARYLAMIDE DERIVATIVES AND THEIR USE AS PKMYT1 INHIBITORS” (CANCER RESEARCH TECHNOLOGY LIMITED, priority 2023, published 2026).

The term IC50 denotes the midpoint of a concentration-inhibition curve. A lower IC50 goes with higher potency.

For one assay, the target named is T1, WEE1 (Homo sapiens, UniProt P30291).
T1 construct: purchased Thermo Fisher PR7373A
Briefly: Selectivity versus WEE1 assay (ADP-Glo enzymatic assay). To be noted: banded. The assay is classed as biochemical. Summed up:
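WEE1 at 15 nM final in 50 mM HEPES pH 7.5, 10 mM MgCl2, 1 mM EGTA, 0.01% Brij-35, 1% DMSO; reaction started with 30 µM ATP, 60 min at 26 °C. ADP-Glo luminescence; IC50 from dose-response curves, replicates within 3-fold and r2 >0.9.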

Assay [1] deals with KYSE-30 cells. Briefly: Cancer cell line proliferation assay, ATP-based cell viability (Cell Titre Glow), KYSE-30 (normal CCNE1). As to conditions: Homo sapiens, KYSE-30 cells (normal CCNE1), concentration that achieves 50% cell growth proliferation inhibition, read-out: KYSE30 Gl50. Summed up: (§1)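 CellTiter-Glo luminescence endpoint; PKMYT1 inhibitor exposure; GI50 = conc. for 50% growth inhibition, curve-fitted.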

For assay [2], the system named is KYSE-30 cells. Briefly: Cancer cell line proliferation assay, nuclear count, KYSE-30 (normal CCNE1). The assay is classed as cell-based. As to conditions: Homo sapiens, normal CCNE1 expression, banded, read-out: KYSE30 GI50. As for the experimental part:
(§2) h-TERT-RPE1 TP53−/− and CCNE1 high expressing clones (clone cell lines 7 and 15) were treated with test compounds dissolved in DMSO at serially diluted concentrations alongside a DMSO only control for around 6 population doublings time. Cells were then fixed with 4% Paraformaldehyde and the cell nuclei were stained with DAPI (Sigma D9542). Images covering each well were acquired by an Opera Phenix® High-Content Screening System (PerkinElmer). Image analysis was performed using Harmony® high-content analysis software (PerkinElmer). Data analysis was performed using Microsoft Excel® and GI50 estimates generated with GraphPad Prism v9. Percent nuclear count was compared to vehicle control wells and used to measure inhibition of proliferation.
(§3) Cancer cell lines with either normal (KYSE-30) or amplified CCNE1 expression (OVCAR3-ovarian cancer) were evaluated for their sensitivity to PKMYT1 inhibitors in a nuclear count assay as described above for h-TERT-RPE1 TP53−/− and a CCNE1 high expressing clones, taking into account the slower cell cycle division times of these lines.

A further assay deals with OVCAR3 cells. Briefly: Cancer cell line proliferation assay, nuclear count, OVCAR3 (CCNE1-amplified). The assay is classed as cell-based. To be noted: banded. On the procedure: as §2, §3
Another assay relates to OVCAR 3 cells. Briefly: Cancer cell line proliferation assay, ATP-based cell viability (Cell Titre Glow), OVCAR 3 (CCNE1-amplified). As to conditions: KYSE30 (normal CCNE1) GI50 vs. OVCAR 3 (CCNE1-amplified) GI50. Summed up:
as §1

In assay [3] the target is T2, Cellular PKMYT1 Biomarker CDK1 pT14 (Homo sapiens, UniProt Q99640).
T2 construct: read-out CDK1 phospho-T14 immunoblot
T2 sequence (Q99640 1-499): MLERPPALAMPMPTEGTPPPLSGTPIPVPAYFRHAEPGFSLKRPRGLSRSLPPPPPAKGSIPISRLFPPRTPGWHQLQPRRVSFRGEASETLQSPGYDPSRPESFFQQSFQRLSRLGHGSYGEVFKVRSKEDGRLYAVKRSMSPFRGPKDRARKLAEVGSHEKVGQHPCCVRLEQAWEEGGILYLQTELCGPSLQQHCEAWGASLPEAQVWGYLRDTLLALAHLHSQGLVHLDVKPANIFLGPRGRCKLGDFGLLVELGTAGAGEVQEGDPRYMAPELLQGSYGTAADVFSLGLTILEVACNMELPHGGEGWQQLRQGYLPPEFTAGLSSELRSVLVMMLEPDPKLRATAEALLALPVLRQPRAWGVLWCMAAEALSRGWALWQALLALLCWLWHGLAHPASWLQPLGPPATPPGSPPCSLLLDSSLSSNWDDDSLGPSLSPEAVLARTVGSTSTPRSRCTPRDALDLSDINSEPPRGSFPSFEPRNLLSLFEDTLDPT
The assay is described as follows: Inhibition of cellular PKMYT1 biomarker CDK1 pT14 in OVCAR 3 cells (immunoblot). The assay is classed as cell-based. As to conditions: 20 hours incubation. Summed up:
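Confluent OVCAR 3 cells treated with a compound concentration range for 20 h at 37 °C. Lysates analysed by automated capillary immunoblot for CDK1 phospho-T14, with vinculin, fluorescence detection; IC50 by regression.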
(In western blotting, separated proteins are transferred to a membrane and probed.)

T1 sequence (P30291 whole entry): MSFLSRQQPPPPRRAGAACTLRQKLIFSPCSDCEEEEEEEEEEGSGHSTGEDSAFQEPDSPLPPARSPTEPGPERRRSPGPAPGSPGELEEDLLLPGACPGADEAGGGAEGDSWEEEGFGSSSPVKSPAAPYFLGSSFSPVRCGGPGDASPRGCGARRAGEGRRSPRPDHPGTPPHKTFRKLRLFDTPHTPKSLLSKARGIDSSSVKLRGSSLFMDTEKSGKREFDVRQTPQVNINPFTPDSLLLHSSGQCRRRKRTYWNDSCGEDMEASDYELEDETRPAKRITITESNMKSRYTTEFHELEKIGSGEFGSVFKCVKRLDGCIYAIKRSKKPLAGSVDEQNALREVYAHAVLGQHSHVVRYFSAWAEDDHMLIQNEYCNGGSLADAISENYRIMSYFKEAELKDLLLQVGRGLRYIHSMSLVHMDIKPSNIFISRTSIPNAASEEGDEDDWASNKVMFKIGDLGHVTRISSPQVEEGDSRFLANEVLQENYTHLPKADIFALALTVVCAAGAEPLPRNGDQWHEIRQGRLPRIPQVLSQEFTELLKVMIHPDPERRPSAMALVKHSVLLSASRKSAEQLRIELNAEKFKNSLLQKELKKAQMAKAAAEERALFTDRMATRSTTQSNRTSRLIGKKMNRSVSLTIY

For `CCN(CC)C(=O)Cn1cc(C)c(Nc2ncc(C(=O)Nc3c(C)ccc(O)c3C)s2)n1` [BAA-207, 2-[[1-[2-(diethylamino)-2-oxo-ethyl]-4-methyl-pyrazol-3-yl]amino]-N-(3-hydroxy-2,6-dimethyl-phenyl)thiazole-5-carboxamide], the IC50 is 1000 to 11000 nM at WEE1 (ADP-Glo, 15 nM WEE1, 60 minutes at 26° C.) and under 100 nM in assay [3]. Besides, at WEE1 (fold difference in selectivity for PKMYT1 over WEE1, ">N" = at least in this band but could be higher), the “PKMYT1 vs. WEE1 selectivity” value was “X (100-<1000 fold)”. Further, the GI50 was over 5000 nM with KYSE-30 cells [1]; 3000 to 10000 nM in the assay on KYSE-30 cells [2]; under 500 nM with OVCAR3 cells (Homo sapiens, OVCAR-3, CCNE1-amplified ovarian cancer, nuclear count). Moreover, in the assay on OVCAR3 cells (GI50 ratio KYSE30 vs. OVCAR3, >N = at least in this band), the “Selectivity ratio KYSE30 GI50 vs. OVCAR3 GI50” value is recorded as “Z (>30 fold)”. Also, the “Selectivity ratio KYSE30 Gl50 vs. OVCAR3 Gl50” value in the assay with OVCAR 3 cells is “Y (>20 fold)”.
